This assay concerns the target SARS-CoV-2 3CLpro (Severe acute respiratory syndrome coronavirus 2, UniProt P0DTD1). Put plainly: biochemical. Type of assay: biochemical. Details: Replicate_1 / Replicate_2 / mean / mean (LOPAC_screen_w_protease): unit not given here. The settings on record: for inhibition at 5 µM: 4 h.
Where [1] appears, read: sheet LOPAC_screen_w_protease, primary screen with protease, mean of two replicates, read-out: mean.
The mark [2] stands for this setting: sheet LOPAC_screen_w_protease, primary screen with protease, replicate 1, read-out: Replicate_1.
Where [3] appears, read: sheet LOPAC_screen_w_protease, primary screen with protease, replicate 2, read-out: Replicate_2.
[4] abbreviates: sheet LOPAC_screen_w_protease, LOPAC1280 primary screen at 5 µM, with protease, mean of the two replicates.
Setting [5] is: sheet LOPAC_screen_w_protease, LOPAC1280 primary screen at 5 µM, with protease, replicate 1.
Setting [6] is: sheet LOPAC_screen_w_protease, LOPAC1280 primary screen at 5 µM, with protease, replicate 2.
Setting [7] is: sheet LOPAC_screen_w_protease, primary screen with protease, mean of two replicates.
Setting [8] is: sheet LOPAC_screen_w_protease, primary screen with protease, replicate 1.
Where [9] appears, read: sheet LOPAC_screen_w_protease, primary screen with protease, replicate 2.
Setting [10] is: LOPAC1280 primary screen with protease, 5 µM compound, mean of two replicates.
[11] abbreviates: LOPAC1280 primary screen with protease, 5 µM compound, replicate 1.
Where [12] appears, read: LOPAC1280 primary screen with protease, 5 µM compound, replicate 2.
Where [13] appears, read: LOPAC1280 primary screen with protease, 5 µM compound, mean of the two replicates.
[14] abbreviates: sheet LOPAC_screen_w_protease, LOPAC1280 at 5 µM, mean of two replicates.
[15] abbreviates: sheet LOPAC_screen_w_protease, LOPAC1280 at 5 µM, replicate 1.
[16] abbreviates: sheet LOPAC_screen_w_protease, LOPAC1280 at 5 µM, replicate 2.
Setting [17] is: sheet LOPAC_screen_w_protease, LOPAC1280 primary screen with protease, 5 µM compound, mean of the two replicates.
The mark [18] stands for this setting: sheet LOPAC_screen_w_protease, LOPAC1280 primary screen with protease, 5 µM compound, replicate 1.
[19] abbreviates: sheet LOPAC_screen_w_protease, LOPAC1280 primary screen with protease, 5 µM compound, replicate 2.
Where [20] appears, read: sheet LOPAC_screen_w_protease, LOPAC1280 primary screen with protease, 5 µM compound, mean of the two replicates, read-out: mean.
Setting [21] is: sheet LOPAC_screen_w_protease, LOPAC1280 primary screen with protease, 5 µM compound, replicate 1, read-out: Replicate_1.
Setting [22] is: sheet LOPAC_screen_w_protease, LOPAC1280 primary screen with protease, 5 µM compound, replicate 2, read-out: Replicate_2.

Counter-ions that a name gives are not always drawn. Like-named read-outs stand apart in the source and are kept apart here.

Regarding `NC(=Nc1ccccc1)NC(=O)c1nc(Cl)c(N)nc1N` [Phenamil methanesulfonate], the inhibition at 5 µM under setting [1] was 2.43%, the inhibition at 5 µM under setting [2] was 2.05% and the inhibition at 5 µM under setting [3] was determined as 2.81%.

As for `C[N+](C)(CCCCCC[N+](C)(C)CCCN1C(=O)c2cccc3cccc(c23)C1=O)CCCN1C(=O)c2cccc3cccc(c23)C1=O.[Br-].[Br-]` [WB 64], the mean under setting [4] is recorded as 0.6302. This compound also had a Replicate_1 under setting [5] of 0.2165. The compound also came in with a Replicate_2 under setting [6] of 1.044.

In the case of `Br.CCCN(CCC)[C@@H]1CCc2cccc(O)c2C1` [R-(+)-8-Hydroxy-DPAT hydrobromide], the mean (sheet LOPAC_screen_w_protease, primary screen with protease, 5 µM, mean of two replicates) was -0.6201. This compound had a Replicate_1 (sheet LOPAC_screen_w_protease, primary screen with protease, 5 µM, replicate 1) of 2.2019. The compound further gave a Replicate_2 (sheet LOPAC_screen_w_protease, primary screen with protease, 5 µM, replicate 2) of -3.442.

As to `CCN(CC)CC.Nc1ncnc2c1ncn2C1OC2COP(O)(=S)O[C@@H]2[C@@H]1O` (stereo partly drawn) [Rp-cAMPS triethylamine], the Replicate_1 was 2.931, the Replicate_2 amounted to 3.042 and the mean is on record as 2.9867.

For the compound `CC(N)C(=O)OC(C)(C)Cc1ccc(Cl)cc1` (stereo not drawn) [Alaproclate hydrochloride], the inhibition at 5 µM is, setting by setting: (sheet LOPAC_screen_w_protease, primary screen of LOPAC1280 at 5 µM with protease, mean of the two replicates, read-out: mean) 3.56%; (sheet LOPAC_screen_w_protease, primary screen of LOPAC1280 at 5 µM with protease, replicate 1, read-out: Replicate_1) 2.81%; (sheet LOPAC_screen_w_protease, primary screen of LOPAC1280 at 5 µM with protease, replicate 2, read-out: Replicate_2) 4.3%.

As for `CN1CCC(c2c[nH]c3ccc(O)cc23)CC1.O=C(O)/C=C\C(=O)O` [BRL 54443 maleate], the mean under setting [7] worked out at 2.426. This compound had a Replicate_1 under setting [8] of 0.4828. Under setting [9], this compound came in with a Replicate_2 of 4.37.

`CC(C)Cc1ccc([C@H](C)C(=O)O)cc1` [S(+)-Ibuprofen]: the “mean (LOPAC_screen_w_protease)” value under setting [10] was 1.7003. The “Replicate_1 (LOPAC_screen_w_protease)” value under setting [11] came out at 1.122. Further, the “Replicate_2 (LOPAC_screen_w_protease)” value under setting [12] was found to be 2.279.

Consider `COC(=O)N1CCN(C(=O)Cc2ccc(Cl)c(Cl)c2)C(CN2CCCC2)C1.O=C(O)/C=C/C(=O)O` (stereo not drawn) [GR-89696 fumarate], for which the mean under setting [7] turned out to be 2.523. Under setting [8], the Replicate_1 was 2.9956. Further, the Replicate_2 under setting [9] was 2.05.

On to `Cl.O=C(OC1CCN(CCCl)CC1)C(c1ccccc1)c1ccccc1`, for which the mean under setting [7] amounted to 2.3143. Under setting [8], this compound came in with a Replicate_1 of 3.423. Moreover, the Replicate_2 under setting [9] is recorded as 1.205.

In the case of `COc1ccccc1N1CCN(CCN2C(=O)CC3(CCCC3)CC2=O)CC1.Cl.Cl` [BMY 7378 dihydrochloride], the mean (sheet LOPAC_screen_w_protease, primary screen with protease, compound at 5 µM, mean of two replicates) came to 2.822. The compound also had a Replicate_1 (sheet LOPAC_screen_w_protease, primary screen with protease, compound at 5 µM, replicate 1) of 2.1144. The same compound came in with a Replicate_2 (sheet LOPAC_screen_w_protease, primary screen with protease, compound at 5 µM, replicate 2) of 3.53.

For the compound `CC1CNCCN1S(=O)(=O)c1cccc2cnccc12.Cl.Cl` (stereo not drawn) [H-7 dihydrochloride], the “mean (LOPAC_screen_w_protease)” value under setting [10] is recorded as 1.4971. The “Replicate_1 (LOPAC_screen_w_protease)” value under setting [11] is given as 2.345. Also, the “Replicate_2 (LOPAC_screen_w_protease)” value under setting [12] is on record as 0.6491.

On to `CN(C)CCCN1c2ccccc2Sc2ccc(C(F)(F)F)cc21` [Triflupromazine hydrochloride], for which the inhibition at 5 µM runs as follows: (sheet LOPAC_screen_w_protease, LOPAC1280 primary screen at 5 µM, with protease, mean of the two replicates, read-out: mean) 0.692%; (sheet LOPAC_screen_w_protease, LOPAC1280 primary screen at 5 µM, with protease, replicate 1, read-out: Replicate_1) 1.65%; (sheet LOPAC_screen_w_protease, LOPAC1280 primary screen at 5 µM, with protease, replicate 2, read-out: Replicate_2) -0.271%.

As to `C[N+]1(C)[C@@H]2CC[C@H]1C[C@@H](OC(=O)C(CO)c1ccccc1)C2` (stereo partly drawn) [Atropine methyl bromide], the inhibition at 5 µM worked out at 2.3% (LOPAC1280 primary screen with protease, 5 µM compound, replicate 1, read-out: Replicate_1 (LOPAC_screen_w_protease)) and 1.25% (LOPAC1280 primary screen with protease, 5 µM compound, replicate 2, read-out: Replicate_2 (LOPAC_screen_w_protease)). Further, the “mean (LOPAC_screen_w_protease)” value under setting [13] turned out to be 1.779.

In the case of `Cc1cccc(C(=O)NCN2CCN(c3ccccc3C#N)CC2)c1.O=C(O)/C=C\C(=O)O` [PD 168,077 maleate], the mean under setting [14] is on record as 1.169. The Replicate_1 under setting [15] is given as 0.792. Moreover, under setting [16], the Replicate_2 is given as 1.545.

In the case of `Br.Br.N=C(N)SCCc1cccc(CCSC(=N)N)c1` [1,3-PBIT dihydrobromide], the “mean (LOPAC_screen_w_protease)” value under setting [10] is recorded as 1.415. For the same compound, the “Replicate_1 (LOPAC_screen_w_protease)” value under setting [11] came to 1.3545. Moreover, under setting [12], the “Replicate_2 (LOPAC_screen_w_protease)” value worked out at 1.476.

As for `O=C1CCC(c2ccc(-n3ccnc3)cc2)=NN1` [Imazodan], the inhibition at 5 µM by setting is: (sheet LOPAC_screen_w_protease, primary screen with protease, 5 µM, mean of two replicates, read-out: mean) -0.683%; (sheet LOPAC_screen_w_protease, primary screen with protease, 5 µM, replicate 1, read-out: Replicate_1) 0.89%; (sheet LOPAC_screen_w_protease, primary screen with protease, 5 µM, replicate 2, read-out: Replicate_2) -2.26%.

As for `O=c1[nH]c2cc(Cl)ccc2c(O)c1-c1cccc(Oc2ccccc2)c1` [L-701,324], the mean under setting [7] worked out at 2.464. The Replicate_1 under setting [8] is recorded as 2.862. Under setting [9], this compound came in with a Replicate_2 of 2.066.

Under setting [17], `C[C@@H]1O[C@H](C[N+](C)(C)C)C[C@H]1O.[Cl-]` (racemic) [(±)-Muscarine chloride] returned a mean of 5.0033. Further, under setting [18], the Replicate_1 was determined as 6.646. This compound also gave a Replicate_2 under setting [19] of 3.361.

With `CCOC(=O)C1=C(C)NC(=S)NC1c1cccc(O)c1` (stereo not drawn) [Monastrol], the inhibition at 5 µM reads like this: under setting [20], 6.04%; under setting [21], 5.54%; under setting [22], 6.55%.

`O=C(c1ccc2c(c1)OCCO2)N1CCCCC1` [CX 546] yielded a Replicate_1 of 1.108, a Replicate_2 of -1.5724 and a mean of -0.2323.

`COc1ccc(CNC(=O)/C=C/c2ccc3[nH]cc(CCN(C)C)c3c2)cc1` [GR 4661] displayed a mean under setting [4] of 0.4567. This compound registered a Replicate_1 under setting [5] of 1.411. Further, the Replicate_2 under setting [6] was -0.4976.

Turning to `Cl.NC1(C(=O)O)CC1`, the mean under setting [14] came out at 1.084. Besides, the Replicate_1 under setting [15] was 2.432. For the same compound, under setting [16], the Replicate_2 was -0.2629.

For the compound `CCCC1O[C@@H]2C[C@H]3[C@@H]4CCC5=CC(=O)C=C[C@]5(C)[C@H]4[C@@H](O)C[C@]3(C)[C@]2(C(=O)CO)O1` (stereo partly drawn) [Budesonide], the inhibition at 5 µM runs as follows: (sheet LOPAC_screen_w_protease, primary screen with protease, compound at 5 µM, mean of two replicates, read-out: mean) 3.01%; (sheet LOPAC_screen_w_protease, primary screen with protease, compound at 5 µM, replicate 1, read-out: Replicate_1) 1.81%; (sheet LOPAC_screen_w_protease, primary screen with protease, compound at 5 µM, replicate 2, read-out: Replicate_2) 4.21%.

In the case of `CN(C)C(=O)Oc1cccc([N+](C)(C)C)c1` [Neostigmine bromide], the inhibition at 5 µM under setting [20] came to 5.51%, the inhibition at 5 µM under setting [21] was determined as 4.9% and the inhibition at 5 µM under setting [22] amounted to 6.13%.

Under setting [4], `N[C@@H](Cn1ccc(=O)[nH]c1=O)C(=O)O` [S(-)-Willardiine] came in with a mean of 0.8515. The Replicate_1 under setting [5] is on record as 0.8129. Moreover, the Replicate_2 under setting [6] is 0.89.

As for `CN1CCN(C2=Nc3cc(Cl)ccc3Nc3ccccc32)CC1` [Clozapine], the inhibition at 5 µM is 2.28% under setting [1], 2.27% under setting [2] and 2.3% under setting [3].

Turning to `OC1(c2ccc(Cl)cc2)CCN(Cc2c[nH]c3ccccc23)CC1` [L-741,626], the mean under setting [17] came to 4.28. Under setting [18], the Replicate_1 came out at 4.691. Under setting [19], the Replicate_2 is on record as 3.869.

`N.N.N.Nc1ncnc2c1ncn2C1OC(COP(=O)(O)OP(=O)(O)OP(=O)(O)OP(=O)(O)OC[C@H]2O[C@@H](n3cnc4c(N)ncnc43)C(O)C2O)[C@@H](O)C1O` (stereo in doubt): the “mean (LOPAC_screen_w_protease)” value under setting [13] was 2.093. Under setting [11], the “Replicate_1 (LOPAC_screen_w_protease)” value is on record as 3.71. The “Replicate_2 (LOPAC_screen_w_protease)” value under setting [12] was 0.4753.

For the setting “sheet LOPAC_screen_w_protease, primary screen of LOPAC1280 at 5 µM with protease, mean of the two replicates”, `C[N+](C)(C)CC#CCOC(=O)Nc1cccc(Cl)c1.[Cl-]` [McN-A-343] had a mean of 3.792. Further, the Replicate_1 (sheet LOPAC_screen_w_protease, primary screen of LOPAC1280 at 5 µM with protease, replicate 1) is on record as 2.713. This compound yielded a Replicate_2 (sheet LOPAC_screen_w_protease, primary screen of LOPAC1280 at 5 µM with protease, replicate 2) of 4.871.

Source of the values: PMC7587356, “High-Throughput Screening for Inhibitors of the SARS-CoV-2 Protease Using a FRET-Biosensor” (Molecules, 2020).
